Patent US6716833B2, “Acetylenic α-amino acid-based sulfonamide hydroxamic acid tace inhibitors” (priority 1999, dated 2004)
pIC50: −log10 of the molar value. Structures can show the parent of a compound that is named as a salt. Where two headings read alike, the source gives them in different places.

Tests used:
Type in all cases: biochemical
[1] = target: TNF-α converting enzyme (TACE) (Homo sapiens, UniProt P78536); assay: TACE inhibition (fluorescent peptidyl substrate); settings: read-out: TACE IC50
MMP-13 = MMP-13 (Homo sapiens, UniProt P45452); assay: MMP-13 inhibition (thiopeptide or fluorescent peptide substrate)
MMP-9 = MMP-9 (Homo sapiens, UniProt P14780); assay: MMP-9 inhibition (thiopeptide or fluorescent peptide substrate); settings: read-out: MMP-9 IC50
MMP-1 = target: T1, MMP-1 (Homo sapiens, UniProt P03956); assay: MMP-1 inhibition (thiopeptide or fluorescent peptide substrate); settings: read-out: MMP-1 IC50
T1 sequence (P03956 100-469): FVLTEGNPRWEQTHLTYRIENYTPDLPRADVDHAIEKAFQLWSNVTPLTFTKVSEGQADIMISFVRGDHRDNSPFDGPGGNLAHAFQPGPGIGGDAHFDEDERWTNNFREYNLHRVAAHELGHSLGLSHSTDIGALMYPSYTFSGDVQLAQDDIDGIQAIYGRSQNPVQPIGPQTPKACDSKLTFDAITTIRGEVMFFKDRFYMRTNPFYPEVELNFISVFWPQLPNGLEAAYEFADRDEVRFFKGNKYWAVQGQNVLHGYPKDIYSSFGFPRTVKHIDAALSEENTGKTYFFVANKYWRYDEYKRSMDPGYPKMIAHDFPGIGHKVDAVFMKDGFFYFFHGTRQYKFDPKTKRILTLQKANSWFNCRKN

[2] = Table 10, read-out: MMP-13 IC50

TNF-α converting enzyme (TACE), sequence (P78536 215-824, species assumed): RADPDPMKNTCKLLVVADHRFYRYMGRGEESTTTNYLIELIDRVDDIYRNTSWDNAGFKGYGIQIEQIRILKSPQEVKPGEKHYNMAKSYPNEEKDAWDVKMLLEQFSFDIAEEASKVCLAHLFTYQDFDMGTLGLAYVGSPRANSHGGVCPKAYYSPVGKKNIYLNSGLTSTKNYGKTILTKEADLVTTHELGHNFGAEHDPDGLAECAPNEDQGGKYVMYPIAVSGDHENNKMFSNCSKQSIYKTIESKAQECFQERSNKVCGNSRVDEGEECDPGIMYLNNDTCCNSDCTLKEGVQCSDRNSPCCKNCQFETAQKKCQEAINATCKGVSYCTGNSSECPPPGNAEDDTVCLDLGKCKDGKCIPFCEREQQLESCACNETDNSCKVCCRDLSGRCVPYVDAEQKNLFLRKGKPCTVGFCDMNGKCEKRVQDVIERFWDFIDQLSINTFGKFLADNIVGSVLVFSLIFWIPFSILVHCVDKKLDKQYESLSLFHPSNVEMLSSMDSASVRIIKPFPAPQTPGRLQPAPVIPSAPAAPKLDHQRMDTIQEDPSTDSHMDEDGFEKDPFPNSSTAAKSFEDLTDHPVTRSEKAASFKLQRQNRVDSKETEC
MMP-9, sequence (P14780 94-707): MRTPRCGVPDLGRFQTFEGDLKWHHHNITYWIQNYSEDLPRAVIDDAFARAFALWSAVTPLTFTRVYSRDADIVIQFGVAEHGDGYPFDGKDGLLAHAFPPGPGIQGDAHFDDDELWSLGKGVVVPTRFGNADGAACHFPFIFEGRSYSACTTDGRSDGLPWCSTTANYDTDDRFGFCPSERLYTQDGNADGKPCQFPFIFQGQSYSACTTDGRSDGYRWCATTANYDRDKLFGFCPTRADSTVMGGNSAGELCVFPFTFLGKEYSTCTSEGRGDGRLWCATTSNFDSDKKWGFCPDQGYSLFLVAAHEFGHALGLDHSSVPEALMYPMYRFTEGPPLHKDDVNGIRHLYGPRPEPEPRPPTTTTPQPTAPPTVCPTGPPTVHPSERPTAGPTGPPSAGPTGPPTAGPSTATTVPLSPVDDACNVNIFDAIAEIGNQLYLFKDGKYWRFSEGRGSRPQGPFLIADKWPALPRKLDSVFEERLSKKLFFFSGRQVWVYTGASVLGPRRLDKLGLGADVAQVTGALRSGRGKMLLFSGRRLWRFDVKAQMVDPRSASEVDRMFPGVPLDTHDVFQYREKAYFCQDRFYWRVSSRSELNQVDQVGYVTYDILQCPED

Row | Compound | pIC50 [1] | pIC50 (MMP-13; read-out: MMP-13 IC50) | pIC50 (MMP-9) | pIC50 (MMP-1) | other results
1 | CC(C)(C)OC(=O)NCCCC#CCOc1ccc(S(=O)(=O)N2CCSC(C)(C)[C@@H]2C(=O)NO)cc1 [Example 250, tert-Butyl 6-[4-({(3S)-3-[(Hydroxyamino)carbonyl]-2,2-dimethylthiomorpholinyl}sulfonyl)phenoxy]-4-hexynylcarbamate] |  |  |  |  | pIC50 ([1]; Table 10): 6.82; pIC50 (MMP-13; [2]): 8.77; pIC50 (MMP-9; Table 10): 6.80; pIC50 (MMP-1; Table 10): 7.38
2 | CC#CCOc1ccc(S(=O)(=O)N(C)[C@@H](C(=O)NO)C2CCC(N(CC)CC)CC2)cc1 (stereo partly drawn) [Example 128, ((2R)-{[4-(2-Butynyloxy)phenyl]sulfonyl}(methyl)amino)[(4-diethylamino)cyclohexyl]-N-hydroxyethamide] | 6.42 | 6.67 | 6.74 | 5.63 | 
3 | CC#CCOc1ccc(S(=O)(=O)N(CCCc2ccccc2)C(C(=O)NO)C(C)C)cc1 (stereo not shown) [Example 111, 2-[(4-but-2-ynyloxy-Benzenesulfonyl)-(3-phenyl-propyl)-amino]-N-hydroxy-3-methyl-butyramide] | 6.32 | 6.52 | 5.85 | 6.51 | 
4 | CC#CCOc1ccc(S(=O)(=O)N2CC[S+]([O-])C(C)(C)C2C(=O)NO)cc1 (single isomer, unassigned) [Example 256] |  |  |  |  | pIC50 ([1]; Table 9): 7.60; pIC50 (MMP-13; Table 9, read-out: MMP-13 IC50): 7.32; pIC50 (MMP-9; Table 9): 6.84; pIC50 (MMP-1; Table 9): 7.37
5 | CC#CCOc1ccc(S(=O)(=O)N(CCN2CCOCC2)C(C(=O)NO)C(C)C)cc1 (stereo not shown) [Example 123, 2-[[[4-(2-Butynyloxy)phenyl]sulfonyl][2-(4-morpholinyl)ethyl]amino]-N-hydroxy-3-methylbutanamide] | 6.99 | 7.05 | 6.20 | 6.61 | 
6 | CC#CCOc1ccc(S(=O)(=O)N(CC#CCNC)C(C(=O)NO)C(C)C)cc1 (stereo not shown) [Example 127, 2-{{[4-(2-Butynyloxy)phenyl]sulfonyl}[4-(methylamino)-2-butynyl]amino}-N-hydroxy-3-methylbutanamide] | 6.98 | 7.43 | 7.28 | 6.73 | 
7 | CC#CCOc1ccc(S(=O)(=O)N(C)[C@@H](C(=O)NO)c2ccc(O[C@H]3CCN(C(=O)OC(C)(C)C)C3)cc2)cc1 [Example 189, tert-Butyl(3S)-3-{4-[(1R)-1-[{[4-(2-butynyloxy)phenyl]sulfonyl}(methyl)amino]-2-(hydroxyamino)-2-oxoethyl]phenoxy}-1-pyrrolidinecarboxylate] | 6.64 | 6.92 | 6.53 | 5.61 | 
8 | CC#CCOc1ccc(S(=O)(=O)N(C)C(C(=O)NO)c2ccc(OCCN)cc2)cc1 (stereo not shown) [Example 181, 2-[4-(2-Aminoethoxy)phenyl]-2-[{[4-(2-butynyloxy)phenyl]sulfonyl}(methyl)amino]-N-hydroxyacetamide] | 7.80 | 7.62 | 7.59 | 6.19 | 
9 | CC1(C)SCCN(S(=O)(=O)c2ccc(OCC#CCCO)cc2)C1C(=O)NO (stereo not shown) [Example 244, N-Hydroxy-4-({4-[(5-hydroxy-2-pentynyl)oxy]phenyl}sulfonyl)-2,2-dimethyl-3-thiomorpholine Carboxamide] |  |  |  |  | pIC50 ([1]; Table 10): 7.21; pIC50 (MMP-13; [2]): 7.85; pIC50 (MMP-9; Table 10): 7.14; pIC50 (MMP-1; Table 10): 7.46
10 | CC#CCOc1ccc(S(=O)(=O)N(CC2CC2)C(C(=O)NO)C(C)C)cc1 (stereo not shown) [Example 112, 2-[(4-but-2-ynyloxy-Benzenesulfonyl)-cyclopropylmethyl-amino]-N-hydroxy-3-methyl-butyramide] | 7.24 | 6.85 | 6.40 | 6.72 | 
11 | CC#CCOc1ccc(S(=O)(=O)N2CCN(C(=O)Nc3cc(Cl)cc(Cl)c3)CC2C(=O)NO)cc1 (stereo not shown) [Example 223, 4-{[4-(2-Butynyloxy)phenyl]sulfonyl}-N-1-(3,5-dichlorophenyl)-N-3-hydroxy-1,3-piperazinedicarboxamide] | 7.08 | 6.82 | 6.19 | 5.77 | 
12 | CC#CCOc1ccc(S(=O)(=O)N2CCN(C(=O)c3ccccc3)CCC2C(=O)NO)cc1 (stereo not shown) [Example 289, 1-Benzoyl-4-{[4-(2-butynyloxy)phenyl]sulfonyl}-N-hydroxy-1,4-diazepane-5-carboxamide] | 8.00 | 8.40 | 7.92 | 6.95 | 
13 | CC1(C)SCCN(S(=O)(=O)c2ccc(OCC#CCCOC3CCCCO3)cc2)C1C(=O)NO (stereo not shown) [Example 243, N-Hydroxy-2,2-dimethyl-4-[(4-{[5-(tetrahydro-2H-pyran-2-yloxy)-2-pentynyl]oxy}phenyl)sulfonyl]-3-thiomorpholine Carboxamide] |  |  |  |  | pIC50 ([1]; Table 10): 7.06; pIC50 (MMP-13; [2]): 8.39; pIC50 (MMP-9; Table 10): 6.75; pIC50 (MMP-1; Table 10): 6.71
14 | CC#CCOc1ccc(S(=O)(=O)N2CCN(Cc3cccnc3)CC2C(=O)NO)cc1 (stereo not shown) [Example 234, 1-(4-but-2-ynyloxy-Benzenesulfonyl)-4-pyridin-3-ylmethyl-piperazine-2-carboxylic Acid Hydroxyamide] | 7.55 |  | 6.97 | 5.50 | pIC50 (MMP-13; MMP-13 IC50): 7.31
15 | CN(CC#CCOc1ccc(S(=O)(=O)N2CCSC(C)(C)C2C(=O)NO)cc1)C(=O)OC(C)(C)C (stereo not shown) [Example 267, tert-Butyl 4-[4-({3-[(Hydroxyamino)carbonyl]-2,2-dimethyl-4-thiomorpholinyl}sulfonyl)phenoxy]-2-butynyl(methyl)carbamate] |  |  |  |  | pIC50 ([1]; Table 10): 6.95; pIC50 (MMP-13; [2]): 7.43; pIC50 (MMP-9; Table 10): 5.90; pIC50 (MMP-1; Table 10): 6.44
16 | CC#CCOc1ccc(S(=O)(=O)N2CCN(C(=O)C3(C)COC(C)(C)OC3)CC2C(=O)NO)cc1 (stereo not shown) [Example 231, 1-{[4-(2-Butynyloxy)phenyl]sulfonyl}-N-hydroxy-4-[(2,2,5-trimethyl-1,3-dioxan-5-yl)carbonyl]-2-piperazinecarboxamide] | 7.23 | 6.45 | 5.95 | 5.61 | 
17 | C#CCN(C(C(=O)NO)C(C)C)S(=O)(=O)c1ccc(OCC#CC)cc1 (stereo not shown) [Example 109, 2-[{[4-(2-Butynyloxy)phenyl]sulfonyl}(2-propynyl)amino]-N-hydroxy-3-methylbutanamide] | 7.26 | 7.28 | 6.63 | 6.68 | 

Continued, in another order:

Row | pIC50 [1] | pIC50 (MMP-13; read-out: MMP-13 IC50) | pIC50 (MMP-9) | pIC50 (MMP-1) | Compound | other results
18 | 7.40 | 7.38 | 7.26 | 6.30 | CC#CCOc1ccc(S(=O)(=O)N(C)C(C(=O)NO)c2ccc(OCCN3CCCC3)cc2)cc1 (stereo not shown) [Example 183, 2-[{[4-(2-Butynyloxy)phenyl]sulfonyl}(methyl)amino]-N-hydroxy-2-{4-[2-(1-pyrrolidinyl)ethoxy]phenyl}acetamide] | 
19 | 7.68 | 7.18 | 6.85 | 6.04 | CC#CCOc1ccc(S(=O)(=O)N(CC#CCN2CCN(C)CC2)C(C)C(=O)NO)cc1 (stereo not shown) [Example 135] | 
20 | 8.15 | 8.00 | 7.62 | 6.92 | CC#CCOc1ccc(S(=O)(=O)N2Cc3ccccc3CC2C(=O)NO)cc1 (stereo not shown) [Example 41, 2-(4-but-2-ynyloxy-Benzenesulfonyl)-1,2,3,4-tetrahydro-isoquinoline-3-carboxylic Acid Hydroxyamide] | 
21 | 7.22 | 8.23 | 7.59 | 7.80 | CC#CCOc1ccc(S(=O)(=O)N(C)C(C(=O)NO)C(C)(C)SCCn2ccnc2)cc1 (stereo not shown) [Example 144, 2-({[4-(2-Butynyloxy)phenyl]sulfonyl)(methyl)amino]-N-hydroxy-3 Methyl-3-{[2-(1H-imidazol-1-yl)ethyl]sulfanyl}butanamide] | 
22 | 7.18 | 6.82 | 6.32 | 6.71 | CC#CCOc1ccc(S(=O)(=O)N(CCC)C(C(=O)NO)C(C)C)cc1 (stereo not shown) [Example 110, 2[(4-but-2-ynyloxy-Benzenesulfonyl)-propyl-amino]-N-hydroxy-3-methyl-butyramide] | 
23 | 8.32 | 7.24 | 6.51 | > 5.00 | C#CCOc1ccc(C(NS(=O)(=O)c2ccc(OCC#CC)cc2)C(=O)NO)cc1 (stereo not shown) [Example 177, 2-({[4-(2-Butynyloxy)phenyl]sulfonyl}amino)-N-hydroxy-2-[4(2-propynyloxy)phenyl]acetamide] | 
24 | 6.97 | 6.82 | 6.07 | 6.30 | CC#CCOc1ccc(S(=O)(=O)N(CC#CCN2CCN(C)CC2)C(C(=O)NO)C(C)C)cc1 (stereo not shown) [Example 125, 2-{{[4-(2-Butynyloxy)phenyl]sulfonyl}[4-(4-methyl-1-piperazinyl)-2-butynyl]amino}-N-hydroxy-3-methylbutanamide] | 
25 | 7.07 | 8.04 | 6.99 | 7.35 | CC#CCOc1ccc(S(=O)(=O)N(C)C(C(=O)NO)C(C)(C)SCCN2CCOCC2)cc1 (stereo not shown) [Example 140, 2-({[4-(2-Butynyloxy)phenyl]sulfonyl)(methyl)amino]-N-hydroxy-3 Methyl-3-[(2(4-morpholinylethyl)sulfanyl]-butanamide Hydrochloride] | 
